# Experimental data: patent US7919274B2, “Light-emitting fusion proteins and diagnostic and therapeutic methods therefor” (Dana-Farber Cancer Institute, Inc., priority 2001, dated 2011)
# Ends that are not written are not given here.
# Key:
# [1] = In vitro degradation assay with xenopus egg extracts; format: biochemical; details: room temperature
# Protocol: Xenopus egg extracts were made as is well known in the art and stored frozen until use. Degradation reactions contained 8 μl of egg extract, 0.1 μl of 100 mg/ml cyclohexamide, 0.25 μl of energy regeneration mix, 0.25 μl of bovine ubiquitin, and 0.4 μl of ^35S-radiolabeled HIF and were carried out at room temperature. At the indicated timepoints 1 μl aliquots were removed and placed in sample buffer. Samples were resolved on 5-15% gradient gels and analyzed by autoradiography. Biotinylated HIF (556-575) peptides were incubated with rabbit reticulocyte lysate, washed, eluted with free biotin, and analyzed by mass spectrometry. 1 μg of HPLC-purified peptide was bound to 30 μl monomeric avidin Sepharose and incubated with 100 μl of rabbit reticulocyte lysate at room temperature for 1 hour with tumbling. Following brief centrifugation the reticulocyte lysate was removed, fresh reticulocyte lysate was added, and the cycle was repeated 6 times. The Sepharose was then washed 4 times with NETN and once with PBS. The modified peptide was eluted in 50 μl of 20 mM ammonium acetate [pH 7.0], 2 mM biotin. […] This peak was not detectable prior to incubation with reticulocyte lysate and was not detected in the corresponding reticulocyte-treated Leu562Ala and Pro564Ala peptides (FIG. 6A). […] Following visualization of standards with ninhydrin radiolabeled proline was detected by autoradiography. […]
# COS7 cells = test: Anti-HA immunoblot of transiently transfected COS7 cells; format: cell-based
# Protocol: (A) depicts in vitro ubiquitination of ^35S-labeled wild-type, Leu562A, and Pro564A Gal4-HA-HIF1α (530-652) in the presence of S100 extracts prepared from pVHL-defective renal carcinoma cells stably transfected to produce wild-type pVHL or with empty vector. […] (C) is an anti-HA immunoblot analysis of COS7 cells transiently transfected with 1.5 or 3.5 μg of plasmids encoding wild-type or P564A HA-HIF1α in the absence or presence of desferoxamine.
# HA-pVHL bound HIF = molecular target: T1, HA-pVHL bound HIF (Homo sapiens, UniProt P40337); test: Peptide elution of HIF coimmunoprecipitated with HA-pVHL from ts20 cells; format: binding; details: 7 μg peptide in 65 μl PBS
# T1 construct: expressed in transfected cells; host or cells: ts20 cells stably transfected with pIRES-HA-VHL, G418-selected
# T1 sequence (P40337 whole entry): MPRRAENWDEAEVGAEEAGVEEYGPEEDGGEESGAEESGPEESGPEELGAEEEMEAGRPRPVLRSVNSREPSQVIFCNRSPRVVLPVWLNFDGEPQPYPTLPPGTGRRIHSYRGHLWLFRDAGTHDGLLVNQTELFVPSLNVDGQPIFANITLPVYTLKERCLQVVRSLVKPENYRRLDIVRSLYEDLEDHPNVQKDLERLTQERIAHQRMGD
# T1 sequence (P62869 whole entry partner): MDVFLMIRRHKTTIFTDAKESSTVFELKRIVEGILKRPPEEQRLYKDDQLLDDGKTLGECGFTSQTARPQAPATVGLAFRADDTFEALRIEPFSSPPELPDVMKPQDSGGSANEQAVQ
# T1 sequence (P83940 whole entry partner): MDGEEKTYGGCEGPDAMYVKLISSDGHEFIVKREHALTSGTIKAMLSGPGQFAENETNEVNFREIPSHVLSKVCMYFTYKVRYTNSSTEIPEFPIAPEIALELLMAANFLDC
# Protocol: Individual G418-resistant colonies were isolated using cloning cylinders and expanded. Cells producing HA-VHL or HA-VHL (Y98H) were identified by anti-HA immunoblot analysis. […] For the tests shown in FIG. 5C, ts20 cells were grown at the restrictive or permissive temperature for 14 hours, methionine-starved for 90 min, and then grown in the methionine-free media supplemented with ^35S-met ([…]) for 90 min.
# [2] = molecular target: T2, pVHL (GST-VHL, elongin B, elongin C complex) (Homo sapiens, UniProt P40337); test: VBC-GST pulldown of 35S-labeled in vitro translated proteins; format: binding
# T2 construct: made in house; host or cells: E. coli
# T2 sequence (P40337 whole entry): as the sequence (P40337 whole entry) above
# T2 sequence (Q15370 whole entry partner): as the sequence (P62869 whole entry partner) above, with E40D, R89C, G110S counted along it
# T2 sequence (Q15369 whole entry partner): as the sequence (P83940 whole entry partner) above
# [3] = Luciferase activity of in vitro translate; format: biochemical; details: versus wild-type luciferase
# HeLa cells = test: Luciferase activity in transiently transfected HeLa cells; format: cell-based
# Protocol: To begin to ask whether the ODD-Luc was oxygen sensitive in cells, transient transfection assays were performed. In the first set of experiments, 100 mm tissue culture plates were seeded with 8×10^5 HeLa cells per plate. Eighteen hours later the cells were transiently transfected, using lipofectamine (Gibco), with the pcDNA3 plasmids encoding ODD-Luc or wild-type Luc along with an internal control plasmid encoding Renilla luciferase. Twenty-four hours after transfection the cells were split into 6 well plates and allowed to adhere and grow for 8-12 hours. At this point the hypoxia mimetics desferrioxamine (DFO) or cobalt chloride (CoCl2) were added directly to the media at final concentrations of 500 μM and 200 μM respectively, in duplicate wells. In addition, some wells were not treated so as to serve as controls. 12 hours after treatment with DFO and CoCl2 the cells were lysed with Passive Lysis Buffer (Promega), rocked at room temperature for 20 minutes, and assayed for Firefly and Renilla Luciferase according to the manufacturers instructions. Results were obtained in duplicate and averaged. (FIG. 17). Luciferase activity in HeLa cells containing pcDNA3 plasmids encoding wild-type Luc are presented in the first three bars from the left; while luciferase activity in HeLa cells containing pcDNA3 plasmids encoding ODD-Luc are presented in the fourth through sixth bars from the left.
# [4] = test system: Hela cells xenograft tumors; test: Imaging of ODD-Luc in xenograft tumors in nude mice; format: in vivo; details: subcutaneous Hela tumors, versus Luc sites
# Protocol: Polyclonal Hela cells stably transfected with ODD-Luc and Luc were generated. The clones were suspended in PBS and counted. 10^6 cells per injection site were administered subcutaneously in duplicate into the flanks of nude mice (FIG. 18). Upon growth of palpable tumors (approximately 3-4 days) the mice were given intraperitoneal injections of phenobarbital for anesthesia, injected with a weight-adjusted dose of luciferin, and whole body imaged with a Xenogen Camera. To ensure that the difference in luciferase activity was not simply a function of tumor size alone, bidimensional tumor measurements were taken and were approximately equal.
# [5] = test system: TETo-driven luciferase reporter plasmid (pUHC13-3); test: TETr-fusion transcriptional luciferase reporter gene assay in U2OS cells; format: cell-based, human; details: pUHC13-3 reporter
# Protocol: (A) is a schematic of reporter plasmid (pUHC 13-3) that contains seven TETracycline operator sequences (TETo) upstream of a minimal CMV promoter that includes a TATA box. (B, C) show U2OS cells were cotransfected with plasmids encoding the indicated TETr fusion proteins along with the pUHC 13-3 reporter plasmid and a plasmid encoding β-galactosidase. Numbers shown at the bottom of the graph indicate the amount of TETr plasmid (in μg). 48 hours later luciferase activity, normalized for β-galactosidase, was determined. Fold repression is the corrected luciferase value for TETr alone divided by the corrected luciferase values for the indicated TETr fusion proteins. Fold activation represents the corrected luciferase values for the indicated TETr fusion proteins divided by the corrected luciferase value for TETr alone. […]
# For TETr-fusion transcriptional assay, subconfluent U2OS cells were transiently transfected in 6-well plates in duplicate with 1 μg of […], 1 μg of pUHC13-3 reporter plasmid, and 3 μg of the indicated plasmids encoding TETr-fusion proteins. […] 48 hours after transfection luciferase activity and β-galactosidase activity was determined as described previously (Qin, 1995).
# cdk2 = molecular target: T3, cdk2 (Homo sapiens, UniProt P24941); test: GST pull-down assay with GST-cdk2; format: binding; details: 35S-labeled in vitro translates
# T3 construct: made in house
# Protocol: (§1) FIG. 11 illustrates that cyclin box is required for transcriptional repression by DNA bound cyclin A. (A) U2OS cells were cotransfected with plasmids encoding the indicated TETr-cyclin A variants along with the pUHC 13-3 reporter plasmid and a plasmid encoding β-galactosidase. Cell extracts were prepared and luciferase activity, corrected for β-galactosidase activity, was expressed as fold repression relative to cells producing TETr alone. (B) The indicated TETr-cyclin A variants were translated in vitro in the presence of ^35S-methionine and incubated with GST-cdk2 and glutathione Sepharose. […] In parallel, 20% of the input proteins were resolved by SDS-polyacrylamide gel electrophoresis and detected by autoradiography. (c) pRB defective SAOS-2 cells transfected so as to produce HA-tagged pRB along with the indicated TETr-cyclin A variants were lysed and immunoblotted with anti-HA antibody.
# Glutathione S-transferase pull-down assays were performed basically as described previously (Kaelin et al., 1991). Binding reactions contained 10 μl of ^35S-radiolabelled in vitro translates made with a TNT kit (Promega) and approximately 1 μg of the indicated GST fusion protein in 1 ml of NETN (20 mM Tris [pH 8], 100 mM NaCl, 1 mM EDTA, 0.5% Nonidet P-40). Following 1 hour incubation at 4° C. with rocking, the Sepharose was washed 5 times with NETN. […]
# pRB = pRB phosphorylation in pRB-defective SAOS-2 cells; format: cell-based, human; details: cointroduced with HA-tagged pRB into SAOS-2 cells
# Protocol: FIG. 8 illustrates the production of TETr-cyclins A and E. (A) is a schematic of TETr-cyclin fusion protein. […] The % of transfected cells in G1 and S phase was determined by fluororescence activated cell sorting (FACS).
# as §1
substance,measurement,setting,value
HIF1α Pro564Ala: HIF1α with Proline 564 converted to alanine,stability relative to wild-type HIF1α,[1],far more stable
same,sensitivity to the hypoxia-mimetic desferoxamine,COS7 cells,insensitive
HIF1α Leu562Ala: HIF1α with Leu562Ala mutation,stability relative to wild-type HIF1α,[1],far more stable
HIF (556-575) Pro564Ala peptide: HIF (556-575) peptide with Pro564Ala substitution (DLDLEMLAAYIPMDDDFQLR),elution of HIF bound to HA-pVHL,HA-pVHL bound HIF,not eluted
ODD-Luc: Firefly luciferase fused in-frame to HIF1α amino acids 555-575 (ODD) (TDLDLEMLAPYIPMDDDFQLR; also: fused to firefly luciferase (not shown)),binding of pVHL (GST-VBC pulldown),[2]; translated in vitro in rabbit reticulocyte lysate,bound
same,binding of pVHL (GST-VBC pulldown),[2]; wheat germ produced,did not bind
same,luciferase activity in vitro,[3],comparable to wild-type luciferase
same,induced luciferase levels versus wild-type luciferase,HeLa cells; after addition of hypoxia-mimetics,comparable
same,luciferase values relative to wild-type Luc,HeLa cells; untreated HeLa cells grown in the presence of oxygen,approximately 30%
same,luciferase signal at injection sites (whole body imaging),[4],attenuated luciferase signal
Cyclin A (1-310): cyclin A fragment 1-310 fused to TETr,transcriptional effect on TETo-driven luciferase reporter,[5],repressed transcription
same,binding to cdk2,cdk2,does not bind to cdk2
same,pRB phosphorylation,pRB,cannot direct the phosphorylation of pRB
